Laboratory results reported in ChEMBL document CHEMBL2203232, “Design and discovery of new (3S,5R)-5-[4-(2-chlorophenyl)-2,2-dimethyl-5-oxopiperazin-1-yl]piperidine-3-carboxamides as potent renin inhibitors” (Bioorg Med Chem Lett, 2012).
Where a chain is given by its changes, count along the chain named. Activity calls are given as the source filed them. The rule behind the calls is not given here.

Assays:
Renin [1] = target: T1, Renin (Homo sapiens, UniProt P00797); assay: Inhibition of recombinant human renin using Arg-Glu(EDANS)-Ile-His-Pro-Phe-His-Leu-Val-Ile-His-Thr-Lys(DABCYL)-Arg as substrate incubated for 10 mins prior to substrate addition measured after 90 mins by fluorimetric analysis
T1 sequence (P00797 whole entry): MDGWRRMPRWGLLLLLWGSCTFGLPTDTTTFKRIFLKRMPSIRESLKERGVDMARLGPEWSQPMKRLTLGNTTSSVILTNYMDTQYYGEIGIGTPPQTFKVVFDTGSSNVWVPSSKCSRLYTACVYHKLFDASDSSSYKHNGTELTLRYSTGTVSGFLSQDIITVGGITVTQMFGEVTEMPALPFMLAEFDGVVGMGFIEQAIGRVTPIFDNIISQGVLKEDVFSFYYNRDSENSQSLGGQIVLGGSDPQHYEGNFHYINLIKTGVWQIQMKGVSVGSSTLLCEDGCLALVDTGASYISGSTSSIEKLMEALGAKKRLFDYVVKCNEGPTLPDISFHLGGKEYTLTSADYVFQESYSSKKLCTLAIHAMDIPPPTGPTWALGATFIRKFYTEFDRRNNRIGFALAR

Renin [2] = target: T2, Renin (Macaca fascicularis, UniProt Q6DLS0); assay: Inhibition of renin in cynomolgus monkey plasma after 60 mins by competitive radioimmunoassay
T2 sequence (Q6DLS0 whole entry): T1 sequence (P00797 whole entry) with T68A, I214L, S235A

[3] = Volume of distribution at steady state in Sprague-Dawley rat at 1 mg/kg, iv; assay type: ADME, organism-based; set-up: dose 1 mg/kg, route intravenous; details: in vivo, read-out: Vdss
[4] = AUC (0 to 24 hrs) in Sprague-Dawley rat at 10 mg/kg, po; assay type: ADME, organism-based; set-up: time < 24 hr, dose 10 mg/kg, route oral; details: plasma
[5] = Oral bioavailability in Sprague-Dawley rat at 10 mg/kg; assay type: ADME, organism-based; details: in vivo
[6] = Cmax in Sprague-Dawley rat at 10 mg/kg, po; assay type: ADME, organism-based; set-up: dose 10 mg/kg, route oral; details: in vivo
[7] = Clearance in Sprague-Dawley rat at 1 mg/kg, iv; assay type: ADME, organism-based; set-up: dose 1 mg/kg, route intravenous; details: in vivo
Rattus norvegicus = assay: Antihypertensive activity in transgenic rat expressing human angiotensin and renin assessed as reduction in mean arterial blood pressure at 10 mg/kg, po measured up to 24 hrs; assay type: functional, organism-based; set-up: dose 10 mg/kg; details: Artery
[8] = Half life in Sprague-Dawley rat at 1 mg/kg, iv; assay type: ADME, organism-based; set-up: dose 1 mg/kg, route intravenous; details: in vivo

Row | Compound | IC50 (Renin [1]) [nM] | IC50 (Renin [2]) [nM] | also measured
1 | CC(C)C[C@@H](NC(=O)[C@@H]1CNC[C@H](N2CC(=O)N(c3ccccc3Cl)CC2(C)C)C1)C(O)C(C)C (stereo in doubt; 14) | 2.5 | 7.5 | 
2 | CC[C@H](CC(C)C)NC(=O)[C@@H]1CNC[C@H](N2CC(=O)N(c3ccccc3Cl)CC2(C)C)C1 | 2.8 | 16 | 
3 | CCOC[C@@H](CC(C)C)NC(=O)[C@@H]1CNC[C@H](N2CC(=O)N(c3ccccc3Cl)CC2(C)C)C1.O=C(O)/C=C/C(=O)O | 1.3 | 1.4 | Vd [3]: 5.8 L/kg; AUC(0-t) at 24 h [4]: 1940 ng·h/mL; bioavailability [5]: 45%; Cmax [6]: 540 ng/mL; clearance [7]: 31 mL/min/kg; Activity (Rattus norvegicus): Active; half-life [8]: 3.2 h
4 | CC[C@@H](NC(=O)[C@@H]1CNC[C@H](N2CC(=O)N(c3ccccc3Cl)CC2(C)C)C1)c1ccccc1 | 2.1 | 6.6 | 
5 | CC(C)CCNC(=O)[C@@H]1CNC[C@H](CN2CC(=O)N(c3ccccc3Cl)CC2(C)C)C1 |  | > 1000 | 
6 | CC(C)C[C@@H](NC(=O)[C@@H]1CNC[C@H](N2CC(=O)N(c3ccccc3Cl)CC2(C)C)C1)C(=O)N(C)C | 8.4 | 23 | 
7 | CC(C)CCNC(=O)[C@@H]1CNC[C@H](N2CC(=O)N(c3ccccc3Cl)CC2(C)C)C1 |  | 54 | 
8 | CC(C)CC(CC(C)C)NC(=O)[C@@H]1CNC[C@H](N2CC(=O)N(c3ccccc3Cl)CC2(C)C)C1 |  | 10 | 
9 | CC(C)C[C@@H](NC(=O)[C@@H]1CNC[C@H](N2CC(=O)N(c3ccccc3Cl)CC2(C)C)C1)c1cccnc1 | 2.1 | 4.2 | 
10 | CC(C)C[C@@H](NC(=O)[C@@H]1CNC[C@H](N2CC(=O)N(c3ccccc3Cl)CC2(C)C)C1)c1ccccc1 | 2.1 | 9 | 
11 | CC(C)CCNC(=O)[C@@H]1CNC[C@H](C(=O)N2CC(=O)N(c3ccccc3Cl)CC2(C)C)C1 | > 1000 | > 1000 | 
12 | CC(C)C[C@@H](NC(=O)[C@@H]1CNC[C@H](N2CC(=O)N(c3ccccc3Cl)CC2(C)C)C1)C(O)C(C)C (stereo in doubt; 13) | 2.3 | 4.8 | 
13 | CCC[C@@H](NC(=O)[C@@H]1CNC[C@H](N2CC(=O)N(c3ccccc3Cl)CC2(C)C)C1)c1ccccc1 | 2.5 | 18 | 
